A value given as a limit tells only on which side of the number the result lay.

One may read the Kd as the equilibrium constant for the complex coming apart. Higher therefore signals lower affinity.

For this test, the target named is Peptidyl-prolyl cis-trans isomerase A (Homo sapiens, UniProt P62937). Kind of test: Isothermal Titration Calorimetry (ITC). As for the experimental part: The buffer used in the titrations of the compounds belonging to the ester series was 50 mM phosphate buffer, pH 6.5 and the concentration of DMSO was 2% v/v for all the compounds, unless otherwise stated in Table 51. […] Control experiments were performed, where each compound was titrated into buffer and when small amount of heat was detected due to heat of dilution, it was subtracted when processing the data using a linear fit method. In all cases the first injection was omitted from the data processing. All data were analysed using the MicroCal PEAQ-ITC Analysis software.
Peptidyl-prolyl cis-trans isomerase A, sequence (P62937 whole entry): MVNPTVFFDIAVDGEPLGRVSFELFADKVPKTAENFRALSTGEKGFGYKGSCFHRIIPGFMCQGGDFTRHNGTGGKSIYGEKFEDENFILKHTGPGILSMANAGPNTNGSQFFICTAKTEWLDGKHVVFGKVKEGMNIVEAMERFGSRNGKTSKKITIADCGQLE

Take `CCOC(=O)CNC(=O)N(Cc1ccc(N)cc1)Cc1cn(CC(=O)OCC)nn1` [US11802108, Compound 20]: the Kd is over 600 µM.
